What was measured:
PRKCA = test system: PRKCA; design: method as in Klaeger et al. (2017); conditions: lysate 4 cell line mix (Colo205, K-562, MV-4-11, and SK-N-BE(2)), Kinobeads y, ref Klaeger et al. (2017); cited from earlier work
PRKAB2 = test system: PRKAB2; design: method as in Klaeger et al. (2017); conditions: lysate 4 cell line mix (Colo205, K-562, MV-4-11, and SK-N-BE(2)), Kinobeads y, ref Klaeger et al. (2017); cited from earlier work
PDO UME061 = experiment: PDO viability assay (CellTiter-Glo, 72 h); type: cell-based; conditions: Homo sapiens
Experimental: Primary patient-derived PDAC organoid (PDO) experiments were performed in the laboratories of Prof. Maximilian Reichert (University Hospital of the TU Munich, Germany, PDO set 1: B250, B535, B678) and Prof. Jens T. Siveke (University Hospital Essen, Germany; PDO set 2: UME008, UME012, UME051, UME053, UME060, UME061). PDOs were generated from surgical resection, EUS-guided fine needle biopsy (EUS-FNB), or ascites (Appendix Table S2). Surgical specimens were first minced with a sterile scalpel and subsequently washed with Anti-Anti solution and washing medium (PDO set 1), or vice versa (PDO set 2; Appendix Table S3). Biopsy samples were directly washed with an Anti-Anti solution and washing medium. Samples were digested using 1 ml of digestion medium at 37 °C while shaking, and the enzymatic reaction was stopped by adding 15 ml of washing medium (Appendix Table S3). […]
For viability assays in PDOs, confluent organoids were removed from medium, and Matrigel was dissolved by adding 200 μl (PDO set 1) or 2 ml (PDO set 2) of Cell Recovery Solution (Corning), and additionally 500 μl of DPBS (PDO set 1 only). […] After 72 h, cell viability was measured using the CellTiter-Glo Luminescent Cell Viability Assay (Promega) diluted 1:5 in the final volume of the well. […]

FLT4 = test system: FLT4; design: method as in Reinecke et al. (2023); conditions: FLT4, 5 cell line mix lysate, Kinobeads ε, ref Reinecke et al. (2023), cited from earlier work
HCK = molecular target: HCK; design: method as in Reinecke et al. (2023); conditions: 5 cell line mix lysate, Kinobeads ε, ref Reinecke et al. (2023), cited from earlier work
ABL2 = test system: ABL2; design: method as in Reinecke et al. (2023); conditions: ABL2, 5 cell line mix lysate, Kinobeads ε, ref Reinecke et al. (2023), cited from earlier work
Capan-1 = experiment: cells; design: Viability of PDAC cell lines, ATPlite luminescence, 11-dose single-agent curve fit; conditions: Homo sapiens, CAPAN-1, 72 h, read-out: EC50 [nM]
How it was run: (§1)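 cells (1000 to 5000 per well) seeded 24 h before drug addition in a screen at 0.2% final DMSO. Controls were drug-free wells (negative) and 5 µM staurosporine (positive).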

Colo-357 = experiment: cells; design: Viability of PDAC cell lines, ATPlite luminescence, 11-dose single-agent curve fit; conditions: Homo sapiens, COLO357, 72 h, read-out: EC50 [nM]
How it was run: as §1

HPDE = experiment: cells; design: Viability of PDAC cell lines, ATPlite luminescence, 11-dose single-agent curve fit; conditions: HPDE, 72 h, read-out: EC50 [nM]
How it was run: as §1

HuP-T4 = experiment: cells; design: Viability of PDAC cell lines, ATPlite luminescence, 11-dose single-agent curve fit; conditions: Homo sapiens, HuP-T4, 72 h, read-out: EC50 [nM]
How it was run: as §1

PANC-1 = experiment: cells; design: Viability of PDAC cell lines, ATPlite luminescence, 11-dose single-agent curve fit; conditions: Homo sapiens, PANC-1, 72 h, read-out: EC50 [nM]
How it was run: as §1

PSN-1 = experiment: cells; design: Viability of PDAC cell lines, ATPlite luminescence, 11-dose single-agent curve fit; conditions: Homo sapiens, PSN1, 72 h, read-out: EC50 [nM]
How it was run: as §1

C[C@]12O[C@H](C[C@]1(O)CO)n1c3ccccc3c3c4c(c5c6ccccc6n2c5c31)CNC4=O [Lestaurtinib]
EC50 (PRKCA): 2.47 µM | EC50 (PRKAB2): 3.52 µM

Nc1ccn([C@@H]2O[C@H](CO)[C@@H](O)C2(F)F)c(=O)n1 [GEM, Gemcitabine]
EC50 (PDO UME061; GEM alone): 0.0058 µM | EC50 (PDO UME061; experiment GEM (GEM alone), mean of replicates): 0.00578 µM

COc1cc(N2CCC(N3CCN(C)CC3)CC2)ccc1Nc1ncc(Cl)c(Nc2ccccc2P(C)(C)=O)n1 [Brigatinib]
EC50 (FLT4): 0.369 µM | pKDapp (FLT4): 6.43 | Kd (FLT4; read-out: KDapp): 0.369 µM | Kd (HCK; read-out: KDapp): 0.776 µM | EC50 (HCK): 1.5 µM | pKDapp (HCK): 6.11 | EC50 (ABL2): 3.24 µM | pKDapp (ABL2): 5.97 | Kd (ABL2; read-out: KDapp): 1.07 µM

CCN1CCN(Cc2ccc(Nc3ncc(F)c(-c4cc(F)c5nc(C)n(C(C)C)c5c4)n3)nc2)CC1 [Abemaciclib]
EC50 (Capan-1): 245 nM | EC50 (Colo-357): 160 nM | EC50 (HPDE): > 10000 nM | EC50 (HuP-T4): 7.93 nM | EC50 (PANC-1): 5540 nM | EC50 (PSN-1): 151 nM

— article PMC11876601 (Molecular Systems Biology, 2025)
